Residues, ends and D or L forms follow the SMILES beside them.
Key:
[1] = target: soluble recombinant human PD-1 receptor (Homo sapiens, UniProt Q15116); assay: Clonal phage ELISA of phage display library clones; assay type: binding; conditions: for Clonal Phase ELISA coated signal: after fifth round of panning; for Clonal Phase ELISA uncoated signal: uncoated (background)
Excerpt: The TriCo-20™ (TRICO-20™) and TriCo-16™ (TRICO-16™) Phage Display Peptide Libraries (Creative Biolabs, 45-1 Ramsey Road, Shirley, N.Y. 11967) were screened to identify binders of soluble recombinant human PD-1 receptor. After the fourth round of panning, obvious enrichment for specific binders was observed, and individual peptides were confirmed as weakly specific binders in a clonal phage ELISA. A fifth round of panning led to greater enrichment.

human PD-1 = human PD-1 (Homo sapiens, UniProt Q15116); assay: BIACORE assay, human PD-1; assay type: binding; conditions: for binding / affinity towards human PD-1 (in words): BIACORE; for Rmax / KA / Kd: ligand human PD-1 10,000 RU, 25° C.; for KA / Kd: steady state equilibrium
Experimental: (§1) BIACORE® assays were carried out using a BIACORE® T-200 at 25° C. The assay and regeneration buffers contained 10 mM HEPES (pH 7.4), 150 mM NaCl, 3 mM EDTA, and 0.05% P20. The immobilization buffer was 10 mM sodium acetate, pH 5.0. The flow rate used for immobilizing the ligand was 5 μl/min. The flow rate for kinetics analysis was 30 μl/min.
[…] The un-occupied sites were blocked with 1M ethanol amine. Scouting was performed at a single analyte concentration of 25 μM to confirm yes/no binding. Flow cell 1 was kept blank and used for reference subtraction. Binding of analyte to the ligand was monitored in real time.
[…] Due to fast on rate and off rate, KD was determined by steady state equilibrium kinetics.
(§2) Chi square (χ2) analysis was carried out between the actual sensorgram and a sensorgram generated from the BIANALYSIS® software (black line) to determine the accuracy of the analysis. A χ2 value within 1-2 is considered significant (accurate) and below 1 is highly significant (highly accurate).

human PBMCs = assay type: cell-based; design: key: “x” indicates no effect; “−” indicates a possible low effect; “+” indicates some effect; “++” indicates a definite effect
mouse PD-1 = target: T1, mouse PD-1 (Mus musculus, UniProt Q02242); assay: BIACORE assay, mouse PD-1; assay type: binding; conditions: for Rmax / KA / Kd: ligand mouse PD-1 10,000 RU, 25° C.; for KA / Kd: steady state equilibrium; for binding / affinity towards mouse PD-1 (in words): BIACORE
T1 sequence (Q02242 25-288): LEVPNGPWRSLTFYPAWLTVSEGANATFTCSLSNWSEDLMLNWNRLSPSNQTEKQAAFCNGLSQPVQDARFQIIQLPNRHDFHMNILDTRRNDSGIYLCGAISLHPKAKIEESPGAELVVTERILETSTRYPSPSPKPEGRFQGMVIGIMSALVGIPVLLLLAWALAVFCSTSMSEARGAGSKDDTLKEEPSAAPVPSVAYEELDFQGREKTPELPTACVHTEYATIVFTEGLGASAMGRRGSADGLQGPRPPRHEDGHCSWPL
Experimental: as §1
12,000 response units (RU) of human and 6000 RU of mouse PD-1 receptors were directly immobilized on flow cell 2 and flow cell 4 of the CMS chip by amine coupling method (EDC/NHS). The un-occupied sites were blocked with 1M ethanol amine. Scouting was performed at a single analyte concentration of 25 μM to confirm yes/no binding. Flow cell 1 was kept blank and used for reference subtraction. Binding of analyte to the ligand was monitored in real time.
Based on the scouting results, full kinetics were performed by immobilizing higher RU of the ligand to a new chip and analyte concentration at 25 μM, followed by serial dilution to 12.5, 6.25, 3.125, 1.562, 0.78 and 0 μM concentration or as indicated. Due to fast on rate and off rate, KD was determined by steady state equilibrium kinetics.
as §2

Sequence of human PD-1 (Q15116 25-288): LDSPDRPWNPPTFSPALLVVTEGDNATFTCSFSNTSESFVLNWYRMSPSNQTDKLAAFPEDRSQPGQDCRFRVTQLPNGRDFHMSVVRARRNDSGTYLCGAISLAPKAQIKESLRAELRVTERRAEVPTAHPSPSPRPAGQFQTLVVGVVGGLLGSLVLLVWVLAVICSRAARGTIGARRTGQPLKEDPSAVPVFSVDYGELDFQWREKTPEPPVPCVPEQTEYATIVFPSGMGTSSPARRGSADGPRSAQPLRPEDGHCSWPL
Sequence of soluble recombinant human PD-1 receptor (Q15116 25-170 limits assumed): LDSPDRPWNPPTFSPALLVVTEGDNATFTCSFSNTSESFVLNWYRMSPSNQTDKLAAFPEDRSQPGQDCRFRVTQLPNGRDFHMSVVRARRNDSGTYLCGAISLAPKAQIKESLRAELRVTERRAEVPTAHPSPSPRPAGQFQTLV

## CSCC[C@H](NC(=O)CNC(=O)[C@@H](NC(=O)[C@H](Cc1c[nH]c2ccccc12)NC(=O)[C@H](Cc1c[nH]cn1)NC(=O)[C@H](CO)NC(=O)[C@H](CCCNC(=N)N)NC(=O)[C@@H](NC(=O)[C@H](CCC(N)=O)NC(=O)[C@H](Cc1ccc(O)cc1)NC(=O)[C@@H](NC(=O)[C@H](CCC(N)=O)NC(=O)[C@H](Cc1c[nH]cn1)NC(=O)[C@H](Cc1c[nH]cn1)NC(=O)[C@@H](N)Cc1c[nH]cn1)C(C)C)C(C)C)[C@@H](C)O)C(=O)N[C@@H](Cc1c[nH]cn1)C(=O)N[C@@H](CO)C(=O)NCC(=O)N[C@@H](Cc1c[nH]cn1)C(=O)N[C@@H](CC(=O)O)C(=O)O [HD20] (H-HHHQVYQVRSHWTGMHSGHD-OH; N-terminus and C-terminus assumed)
[1]
  Clonal Phase ELISA coated signal: 0.281
  Clonal Phase ELISA uncoated signal: 0.109
Human PD-1
  binding / affinity towards human PD-1 (in words): highest affinity
  Rmax: 3.35 RU
  KA: 318000 M⁻¹
  Kd: 3.41 µM
Human PBMCs
  IFNγ production: ++
  IL-2 production: −
  IL-4 production: x
  IL-6 production: ++
  IL-10 production: x
  TNFα production: ++
Mouse PD-1
  Rmax: 76 RU
  KA: 4250 M⁻¹
  Kd: 235 µM

## CC[C@H](C)[C@H](NC(=O)[C@H](CCCCN)NC(=O)[C@@H]1CCCN1C(=O)[C@H](CCSC)NC(=O)[C@@H]1CCCN1C(=O)[C@@H](NC(=O)[C@@H](NC(=O)[C@H](CCCNC(=N)N)NC(=O)[C@@H](NC(=O)[C@@H](N)CCC(N)=O)[C@@H](C)O)[C@@H](C)O)C(C)C)C(=O)N[C@@H](Cc1c[nH]cn1)C(=O)N[C@@H](Cc1c[nH]cn1)C(=O)N1CCC[C@H]1C(=O)N1CCC[C@H]1C(=O)N[C@@H](Cc1c[nH]c2ccccc12)C(=O)N[C@@H](CCC(N)=O)C(=O)N[C@@H](CC(N)=O)C(=O)N[C@H](C(=O)N[C@H](C(=O)N1CCC[C@H]1C(=O)O)C(C)C)C(C)C [QP20] (H-QTRTVPMPKIHHPPWQNVVP-OH; N-terminus and C-terminus assumed)
[1]
  Clonal Phase ELISA coated signal: 0.851
  Clonal Phase ELISA uncoated signal: 0.446
Human PD-1
  Rmax: 3.83 RU
  KA: 93600 M⁻¹
  Kd: 10.7 µM
Human PBMCs
  IFNγ production: x
  IL-2 production: x
  IL-4 production: −
  IL-6 production: x
  IL-10 production: x
  TNFα production: x
Mouse PD-1
  binding / affinity towards mouse PD-1 (in words): highest affinity
  Rmax: 13.4 RU
  KA: 18000 M⁻¹
  Kd: 55.4 µM

## CSCC[C@H](NC(=O)[C@H](CCCCN)NC(=O)[C@H](Cc1ccccc1)NC(=O)[C@H](Cc1c[nH]cn1)NC(=O)[C@H](Cc1c[nH]cn1)NC(=O)[C@H](Cc1ccc(O)cc1)NC(=O)[C@H](CO)NC(=O)[C@@H](N)CO)C(=O)N1CCC[C@H]1C(=O)N[C@@H](CCC(=O)O)C(=O)N[C@@H](CC(C)C)C(=O)N[C@@H](Cc1c[nH]cn1)C(=O)N[C@@H](Cc1ccccc1)C(=O)NCC(=O)N[C@@H](CCCCN)C(=O)N[C@@H](CC(N)=O)C(=O)N[C@H](C(=O)N[C@@H](Cc1ccccc1)C(=O)N[C@@H](Cc1c[nH]cn1)C(=O)N[C@@H](CCC(N)=O)C(=O)O)[C@@H](C)O [SQ20] (H-SSYHHFKMPELHFGKNTFHQ-OH; N-terminus and C-terminus assumed)
[1]
  Clonal Phase ELISA coated signal: 0.284
  Clonal Phase ELISA uncoated signal: 0.159
Human PD-1
  binding / affinity towards human PD-1 (in words): highest affinity
  Rmax: 4.05 RU
  KA: 194000 M⁻¹
  Kd: 5.16 µM
Human PBMCs
  IFNγ production: ++
  IL-2 production: +
  IL-4 production: −
  IL-6 production: ++
  IL-10 production: +
  TNFα production: +
Mouse PD-1
  binding / affinity towards mouse PD-1 (in words): highest affinity
  Rmax: 12.8 RU
  KA: 21400 M⁻¹
  Kd: 46.8 µM

## CC[C@H](C)[C@H](NC(=O)[C@H](Cc1c[nH]c2ccccc12)NC(=O)[C@H](CCC(=O)O)NC(=O)[C@H](Cc1c[nH]cn1)NC(=O)[C@H](CCC(=O)O)NC(=O)[C@H](Cc1c[nH]cn1)NC(=O)[C@@H]1CCCN1C(=O)[C@H](CCCNC(=N)N)NC(=O)[C@@H](NC(=O)[C@H](Cc1c[nH]cn1)NC(=O)[C@H](Cc1c[nH]cn1)NC(=O)[C@H](CC(N)=O)NC(=O)[C@H](Cc1c[nH]cn1)NC(=O)[C@H](Cc1ccccc1)NC(=O)[C@H](CO)NC(=O)[C@H](C)NC(=O)[C@@H]1CCCN1C(=O)[C@H](CC(C)C)NC(=O)[C@H](CC(N)=O)NC(=O)[C@@H](N)Cc1c[nH]c2ccccc12)[C@@H](C)CC)C(=O)N[C@@H](CCC(N)=O)C(=O)O [WQ20] (H-WNLPASFHNHHIRPHEHEWIQ-OH; N-terminus and C-terminus assumed)
[1]
  Clonal Phase ELISA coated signal: 0.275
  Clonal Phase ELISA uncoated signal: 0.115
Human PD-1
  Rmax: 84.7 RU
  KA: 3280 M⁻¹
  Kd: 305 µM
Human PBMCs
  IFNγ production: ++
  IL-2 production: −
  IL-4 production: ++
  IL-6 production: ++
  IL-10 production: x
  TNFα production: ++
Mouse PD-1
  Rmax: 270 RU
  KA: 1310 M⁻¹
  Kd: 761 µM

## Mouse PD-L1: mouse PD-L1 used as analyte on immobilized mouse PD-1 in BIACORE [reference compound]
Mouse PD-1
  Rmax: 259 RU
  KA: 2.75e+06 M⁻¹

Reference: US10799555B2, “PD-1 peptide inhibitors” (Leidos, Inc., priority 2016, dated 2020)
